The target in one test is Recombinant human cathepsin S (CatS) (Homo sapiens, UniProt P25774). Nature of the test: Recombinant human cathepsin S (CatS) inhibition assay, fluorogenic substrate Z-Valine-Valine-Arginine-AMC.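 Further: Baculovirus-expressed CatS in pH 5.0 sodium acetate buffer with DTT and NaCl, fluorescence read each minute over 20 min, inhibition derived from rate slope.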
Sequence of Recombinant human cathepsin S (CatS) (P25774 115-331): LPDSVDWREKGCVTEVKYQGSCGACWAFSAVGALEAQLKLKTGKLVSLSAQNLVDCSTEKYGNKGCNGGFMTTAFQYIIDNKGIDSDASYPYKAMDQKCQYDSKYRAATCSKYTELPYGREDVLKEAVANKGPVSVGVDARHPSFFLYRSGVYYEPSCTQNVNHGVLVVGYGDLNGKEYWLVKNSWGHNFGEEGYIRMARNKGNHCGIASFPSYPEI
Settings: not given
Turning to `CS(=O)(=O)N1CCc2c(c(-c3ccc(Cl)c(CCc4ccc(Cl)cc4)c3)nn2CC(O)CN2CCC3(CCNC3=O)CC2)C1` (centres unmarked) [Example 148, 8-[3-(3-{4-Chloro-3-[2-(4-chloro-phenyl)-ethyl]-phenyl}-5-methanesulfonyl-4,5,6,7-tetrahydro-pyrazolo[4,3-c]pyridin-1-yl)-2-hydroxy-propyl]-2,8-diaza-spiro[4.5]decan-1-one], the IC50 (in general, the concentration that gives 50% inhibition) was 80 nM.

With `CN(C)CCCCc1cc(-c2nn(CCCN3CCC(N4CCCC4=O)CC3)c3c2CN(S(C)(=O)=O)CC3)ccc1Cl` [Example 312, 1-(1-{3-[3-{4-Chloro-3-[4-(dimethylamino)butyl]phenyl}-5-(methylsulfonyl)-4,5,6,7-tetrahydro-1H-pyrazolo[4,3-c]pyridin-1-yl]propyl}piperidin-4-yl)pyrrolidin-2-one], the 50% inhibitory concentration (IC50) is 5620 nM.

As for `NC(=O)N1CCc2c(c(-c3ccc(Cl)c(C#Cc4ccc(Cl)cc4)c3)nn2CCCN2CCOCC2)C1` [Example 144, 3-[4-Chloro-3-(4-chloro-phenylethynyl)-phenyl]-1-(3-morpholin-4-yl-propyl)-1,4,6,7-tetrahydro-pyrazolo[4,3-c]pyridine-5-carboxylic acid amide], the IC50 is 60 nM.

As to `CS(=O)(=O)N1CCc2c(c(-c3ccc(Cl)c(CCCCN4CCCC4)c3)nn2CCCN2CCC(N3CCCC3=O)CC2)C1` [Example 109, 1-[1-(3-{3-[4-Chloro-3-(4-pyrrolidin-1-yl-butyl)-phenyl]-5-methanesulfonyl-4,5,6,7-tetrahydro-pyrazolo[4,3-c]pyridin-1-yl}-propyl)-piperidin-4-yl]-pyrrolidin-2-one], the IC50 stood at 2270 nM.

For the compound `CS(=O)(=O)N1CCc2c(c(-c3ccc(Cl)c(C#Cc4ccc(CNCc5ccc(Cl)cc5)cc4)c3)nn2CCCN2CCOCC2)C1` [Example 76, (4-Chloro-benzyl)-(4-{2-chloro-5-[5-methanesulfonyl-1-(3-morpholin-4-yl-propyl)-4,5,6,7-tetrahydro-1H-pyrazolo[4,3-c]pyridin-3-yl]-phenylethynyl}-benzyl)-amine], the IC50 was 240 nM.

`CS(=O)(=O)N1CCc2c(c(-c3ccc(Cl)c(C#Cc4cccc(CO)c4)c3)nn2CCCN2CCOCC2)C1` [Example 6, (3-{2-Chloro-5-[5-methanesulfonyl-1-(3-morpholin-4-yl-propyl)-4,5,6,7-tetrahydro-1H-pyrazolo[4,3-c]pyridin-3-yl]-phenylethynyl}-phenyl)-methanol]: the IC50 is 950 nM.

On to `CS(=O)(=O)N1CCc2c(c(-c3ccc(Cl)c(C#Cc4ccc(CNCc5ccc(Cl)cc5)cc4)c3)nn2CCCN2CCOCC2CO)C1` (centres unmarked) [Example 419, (4-{3-[3-(4-Chloro-3-{[4-({[(4-chlorophenyl)methyl]amino}methyl)phenyl]ethynyl}phenyl)-5-(methylsulfonyl)-4,5,6,7-tetrahydro-1H-pyrazolo[4,3-c]pyridin-1-yl]propyl}morpholin-3-yl)methanol], for which the half-inhibitory concentration (IC50) amounted to 180 nM.

In the case of `C[C@H]1COCCN1CC(O)Cn1nc(-c2ccc(Cl)c(C#Cc3ccc(CNCc4ccc(Cl)cc4)cc3)c2)c2c1CCN(C(N)=O)C2` (stereo in doubt) [Example 258, 3-(4-Chloro-3-{4-[(4-chloro-benzylamino)-methyl]-phenylethynyl}-phenyl)-1-[(2S)-2-hydroxy-3-((3S)-3-methyl-morpholin-4-yl)-propyl]-1,4,6,7-tetrahydro-pyrazolo[4,3-c]pyridine-5-carboxylic acid amide], the IC50 was determined as 80 nM.

As to `CS(=O)(=O)N1CCc2c(c(-c3ccc(Cl)c(C#Cc4ccc(CC#N)cc4)c3)nn2CCCN2CCOCC2)C1` [Example 3, (4-{2-Chloro-5-[5-methanesulfonyl-1-(3-morpholin-4-yl-propyl)-4,5,6,7-tetrahydro-1H-pyrazolo[4,3-c]pyridin-3-yl]-phenylethynyl}-phenyl)-acetonitrile], the IC50 was 270 nM.

With `CS(=O)(=O)N1CCc2c(c(-c3ccc(Cl)c(C#CC4CCCCC4)c3)nn2C[C@@H](O)CN2CCC(C3CCNCC3)CC2)C1` [Example 472, (2S)-1-(4,4′-Bipiperidin-1-yl)-3-{3-[4-chloro-3-(cyclohexylethynyl)phenyl]-5-(methylsulfonyl)-4,5,6,7-tetrahydro-1H-pyrazolo[4,3-c]pyridin-1-yl}propan-2-ol], the IC50 stood at 4510 nM.

For the compound `CC(=O)NC1CCN(CCCn2nc(-c3ccc(Cl)c(C#Cc4ccc(CNCc5ccc(Cl)cc5)cc4)c3)c3c2CCN(S(C)(=O)=O)C3)CC1` [Example 346, N-(1-{3-[3-(4-Chloro-3-{[4-({[(4-chlorophenyl)methyl]amino}methyl)phenyl]ethynyl}phenyl)-5-(methylsulfonyl)-4,5,6,7-tetrahydro-1H-pyrazolo[4,3-c]pyridin-1-yl]propyl}piperidin-4-yl)acetamide], the IC50 worked out at 20 nM.

With `CS(=O)(=O)N1CCc2c(c(-c3ccc(Cl)c(C#CCN)c3)nn2CCCN2CCOCC2)C1` [Example 303, 3-{2-Chloro-5-[5-(methylsulfonyl)-1-(3-morpholin-4-ylpropyl)-4,5,6,7-tetrahydro-1H-pyrazolo[4,3-c]pyridin-3-yl]phenyl}prop-2-yn-1-amine], the IC50 is over 20000 nM.

Staying with this test, now noted: CatS IC50.
Turning to `CS(=O)(=O)N1CCc2c(c(-c3ccc(Cl)c(C#Cc4ccc5c(c4)CNCCC5)c3)nn2CCCN2CCOCC2)C1` [Example 489, 8-({2-Chloro-5-[5-(methylsulfonyl)-1-(3-morpholin-4-ylpropyl)-4,5,6,7-tetrahydro-1H-pyrazolo[4,3-c]pyridin-3-yl]phenyl}ethynyl)-2,3,4,5-tetrahydro-1H-2-benzazepine], the half-inhibitory concentration (IC50) was 480 nM.

On to `NC(=O)N1CCc2c(c(-c3ccc(Cl)c(C#Cc4ccc(CNCc5ccc(N)cc5)cc4)c3)nn2CCCN2CCSCC2)C1` [Example 551, 3-(3-{[4-({[(4-Aminophenyl)methyl]amino}methyl)phenyl]ethynyl}-4-chlorophenyl)-1-(3-thiomorpholin-4-ylpropyl)-1,4,6,7-tetrahydro-5H-pyrazolo[4,3-c]pyridine-5-carboxamide], for which the IC50 was found to be 100 nM.

On to `CS(=O)(=O)N1CCc2c(c(-c3ccc(Cl)c(C#Cc4ccc(CNCc5ccc(Cl)cc5)cc4)c3)nn2CCCN2CCC(N)CC2)C1` [Example 331, 1-{3-[3-(4-Chloro-3-{[4-({[(4-chlorophenyl)methyl]amino}methyl)phenyl]ethynyl}phenyl)-5-(methylsulfonyl)-4,5,6,7-tetrahydro-1H-pyrazolo[4,3-c]pyridin-1-yl]propyl}piperidin-4-amine], for which the IC50 was determined as 170 nM.

Consider `NC(=O)N1CCc2c(c(-c3ccc(Cl)c(C#Cc4cccc(CNCc5cccc(Cl)c5)c4)c3)nn2CCCN2CCSCC2)C1` [Example 514, 3-(4-Chloro-3-{[3-({[(3-chlorophenyl)methyl]amino}methyl)phenyl]ethynyl}phenyl)-1-(3-thiomorpholin-4-ylpropyl)-1,4,6,7-tetrahydro-5H-pyrazolo[4,3-c]pyridine-5-carboxamide], for which the IC50 came to 140 nM.

The same test, now with this note: CatS IC50, Table 2; average of results obtained.
Take `CS(=O)(=O)N1CCc2c(c(-c3ccc(Cl)c(C#Cc4ccc(N)cc4)c3)nn2CCCN2CCOCC2)C1` [Example 38, 4-{2-Chloro-5-[5-methanesulfonyl-1-(3-morpholin-4-yl-propyl)-4,5,6,7-tetrahydro-1H-pyrazolo[4,3-c]pyridin-3-yl]-phenylethynyl}-phenylamine]: the IC50 is 330 nM.
